According to US10125160B1, “Method of making cobalt and platinum based surfactants and using for cancer therapy” (Umm Al-Qura University, priority 2015, dated 2018):

Columns and labels:
[1] = Surface tension and critical micelle concentration (Du-Nouy tensiometer); format: physicochemical; design: PC20: unit not given here
Method: Surface tension values of the synthesized complex solutions (parent complex, parent complex with Co, parent complex with Pt) were obtained at 30îC using Du-Nouy Tensiometer (Kruss K6 Type 4851) with a platinum ring. Apparent surface tension was measured about five times for the sample within 2 min interval between each reading. The averages of five determinations were plotted against −log C without any correction. The critical micelle concentration values were determined from the plot of surface tension versus concentration.
Table 4 summarizes the surface-active parameters such as critical micelle concentration (CMC), γCMC, and pC20 (the surfactant concentration required to reduce the surface tension of the solvent by 20 mN/m) determined from the curves of FIG. 1. Values of Γmax (the surface excess concentration of surfactant) and Amin (interfacial area occupied by the surfactant molecules) were calculated using the Gibbs adsorption equation:
Where (δγ/δ log C) is the maximum slope in each case; T is absolute temperature; R=[…] and N is Avogadro's number. The standard free energy of micellization (ΔG°mic) is calculated from the equation: ΔG°mic=RT in CMC (Eq 7)
The standard free energy of adsorption (ΔG°ads) is calculated according to the following equation: ΔG°ads=ΔG°mic−ΠCMCAmin (Eq 8)

HEPG2 (liver carcinoma) = assay: Potential cytotoxicity by SRB assay, HEPG2; format: cell-based, human
Method: (§1) Potential cytotoxicity of the complex was tested using the method of Skehan et al. (1990). The tumor cell lines: MCF7 (Breast carcinoma), HEPG2 (liver carcinoma), (10^4 cells/well) had been supplied from National Cancer Institute Cairo Egypt, were plated in 96-multiwell plat for 24 h before treatment with the compounds to allow attachment of cell to the wall of the plate.
(§2) Different concentrations of the complexes under test (0, 1, 2.5, Sand 10 μg/ml) were added to the cell-monolayer (parent complex, parent complex with Co, parent complex with Pt). Triplicate wells were prepared for each individual dose. Monolayer cells were incubated with the complex for 48 h at 37 C° and in atmosphere of 5% CO2. After 48 h, Cells were fixed, washed and stained with Sulfurhodamine B stain. Excess stain was washed with acetic acid and attached stain was recovered with Tris EDTA buffer. Color intensity was measured in an ELISA reader. […]
(§3) Cobalt and Platinum benzidinium hydrogen selenite complexes as well as their parent were investigated as potential selective, anticancer drugs. […] The results of the cytotoxic activity on human tumor cell lines were determined according to the dose values of drug exposure for cell lines to reduce survival to 50% (Ic50). The experimental results recorded in Table (5) and plots of surviving fraction versus concentration in μg in FIGS. 2, 3).

MCF7 (Breast carcinoma) = assay: Potential cytotoxicity by SRB assay, MCF7; format: cell-based, human
Method: as §1, §2, §3

[2] = calculated using Gibbs adsorption equation
[3] = SRB assay, 48 h, dose reducing survival to 50%
[4] = in vitro on the tumor cell line investigated

For `CCCCCCCCCC(=O)Nc1ccc(-c2ccc(N)cc2)cc1.O=[Se](O)O` [parent, N-decanoylbenzidinum hydrogen selenite], the ΠCMC [1] was 33 mN/m, the “Amin (interfacial area occupied by surfactant molecules)” value [1, 2] was 1.80 nm^2 and the “Γmax × 10^−11 (surface excess concentration)” value [1, 2] was 9.1 × 10^−11 Mole/cm^2. The “ΔGmic (standard free energy of micellization)” value ([1]; calculated, Eq 7) was −27.64 KJ\mol, the “ΔGads (standard free energy of adsorption)” value ([1]; calculated, Eq 8) was −64.21 KJ\mol and the “CMC × 10^−3 (critical micelle concentration)” value ([1]; from plot of surface tension versus concentration) was 3.76 × 10^−3. For the same compound, the γCMC ([1]; surface tension at CMC) was 39 mN/m, the PC20 ([1]; surfactant concentration required to reduce surface tension of solvent by 20 mN/m) was 3.50 and the “HEPG2 (IC50)” value (HEPG2 (liver carcinoma); [3]) was “−Ve”. For the same compound, the “cytotoxic activity in words, HEPG2” value (HEPG2 (liver carcinoma); [4]) was “no effect”, the “MCF7 (IC50)” value (MCF7 (Breast carcinoma); [3]) was “−Ve” and the “cytotoxic activity in words, MCF7” value (MCF7 (Breast carcinoma); [4]) was “no effect”.
